SMILES strings stand for the structures.

Test [1] concerns the target T1, COS-7/AMY3 (human calcitonin receptor (CTR) and RAMP3) (Homo sapiens, UniProt O60896+P30988).
T1 construct: expressed in transfected cells; host or cells: COS-7
As to the kind of experiment: Amylin Receptor cAMP Assay II. The test is classed as cell-based. The settings on record: values marked **: Amylin Receptor cAMP Assay II; COS-7/AMY3 cells, cAMP dynamic 2 kit, 30 min; read-out: Amylin Receptor cAMP Stimulation Activity: EC50. The source says: AMYRs are heterodimers of the class B calcitonin (CT) G-protein-coupled receptor (CTR) and receptor activity-modifying proteins (RAMPs). All three RAMPs can interact with the CTR and form AMY1, AMY2, AMY3 with RAMP1, RAMP2 and RAMP3, respectively. Like other class B1 GPCRs, the CT receptor family is canonically coupled to Gs-mediated cAMP production, and measurement of cAMP accumulation has been the primary assay used to determine peptide selectivity and potency.
(§1) To optimize functional activity directed toward Gαs coupling, COS-7 cells were stably transfected with human calcitonin receptor (CTR) and RAMP3, simultaneously. 100×concentration of compound working solutions were prepared with 4-fold serial dilution in 384-well Echo LDV plate (Labcyte, Cat #LP-0200-BC). 200 nL/well 100×concentration of compound working solutions were moved to 384-well white microplate (Perkin Elmer, Cat #6007680) using Labcyte ECHO550. 1×10^5 cells/mL COS-7/AMY3 cell suspensions prepared with assay buffer [HBSS containing 20 mM HEPES (Gibco, Cat #15630-080), 0.5 mM IBMX (Sigma, Cat #15879) and 0.1% Casein (Sigma, Cat #C4765)], 20 μL cell suspensions were added to each well of previous generated assay plate which already contains 200 nL compound at 100×concentration using ThermoFisher Multidrop Combi (2000 cells/well). Seal the plate and incubate at 37° C. with 5% CO2 for 30 min.
(§2) After incubation, the cAMP assay signal was generated using cAMP dynamic 2 kit (Revvity, Cat #62AM4PEC). 10 μL cAMP-d2 working solution was added to each well, followed by 10 μL Anti-cAMP antibody-cryptate working solution which was added to each well using CERTUS FLEX LIQUID […]. The samples were then incubated at room temperature for 1 hour protected from light. the fluorescence was read at 665 and 615 nm with Reader PerkinElmer EnVision 2105. % Activity=100−(mean RLU of test sample−mean RLU of positive control)/(mean RLU of vehicle control−mean RLU of positive control)×100 Calcitonin Receptor (CTR) cAMP Assay

Test [2] deals with T2, human calcitonin receptor (CTR) (Homo sapiens, UniProt P30988).
T2 construct: expressed in transfected cells; host or cells: COS-7 (COS7-human CTR Clone #2)
T2 sequence (P30988 25-474): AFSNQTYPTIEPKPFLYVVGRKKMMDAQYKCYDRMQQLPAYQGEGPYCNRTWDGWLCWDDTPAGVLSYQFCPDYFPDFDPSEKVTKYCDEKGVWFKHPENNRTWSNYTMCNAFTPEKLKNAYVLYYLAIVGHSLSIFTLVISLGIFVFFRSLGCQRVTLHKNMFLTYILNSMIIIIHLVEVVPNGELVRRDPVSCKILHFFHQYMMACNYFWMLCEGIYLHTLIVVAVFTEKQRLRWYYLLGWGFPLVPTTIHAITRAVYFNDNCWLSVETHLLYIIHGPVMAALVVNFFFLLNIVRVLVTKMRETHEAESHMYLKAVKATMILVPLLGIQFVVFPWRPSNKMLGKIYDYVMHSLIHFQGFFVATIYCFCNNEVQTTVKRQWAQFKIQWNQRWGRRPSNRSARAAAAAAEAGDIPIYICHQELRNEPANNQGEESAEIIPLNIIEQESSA
In words: Calcitonin Receptor (CTR) cAMP Assay. The test is classed as cell-based. The settings on record: COS7-human CTR Clone #2 stable cell line, cAMP dynamic 2 kit, 30 min; read-out: Calcitonin Receptor cAMP Stimulation Activity: EC50. The method, then:
as §2
The calcitonin receptor (CTR) belongs to the subfamily of GPCRs known as the secretin or ‘B’ family of GPCRs. Like other class B1 GPCRs, the CT receptor family is canonically coupled to Gs-mediated cAMP production, and measurement of cAMP accumulation has been the primary assay used to determine peptide selectivity and potency.
as §1, with “to create COS7-human CTR Clone #2 stable cell line.” for “and RAMP3, simultaneously.”, “COS7-human CTR Clone #2” for “COS-7/AMY3”
After incubation, the cAMP assay signal was generated using cAMP dynamic 2 kit (Revvity, Cat #62AM4PEC). 10 μL cAMP-d2 working solution was added to each well, followed by 10 μL Anti-cAMP antibody-cryptate working solution which was added to each well using CERTUS FLEX LIQUID […]. The samples were then incubated at room temperature for 1 hour protected from light. the fluorescence was read at 665 and 615 nm with Reader PerkinElmer EnVision 2105. % Activity=100−(mean RLU of test sample−mean RLU of positive control)/(mean RLU of vehicle control−mean RLU of positive control)×100

T1 sequence (O60896 24-148, one chain of several): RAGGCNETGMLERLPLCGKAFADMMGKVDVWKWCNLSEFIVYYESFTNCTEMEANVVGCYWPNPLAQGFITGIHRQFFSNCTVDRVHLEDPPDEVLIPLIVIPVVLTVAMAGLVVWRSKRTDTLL

Broadly, the EC50 is the concentration at which the effect is half-maximal. Turning to `O=C1c2c(nc(CCc3ccc(F)cc3)c(-c3n[nH]c(=O)o3)c2-c2cc3ccnc(N[C@@H]4CCc5cc(F)ccc54)c3s2)C23CC(CN12)C3` [Compound 280, (R)-5-(4-(7-((5-fluoro-2,3-dihydro-1H-inden-1-yl)amino)thieno[2,3-c]pyridin-2-yl)-2-(4-fluorophenethyl)-5-oxo-5,7,8,9-tetrahydro-8,9a-methanopyrido[2,3-a]pyrrolizin-3-yl)-1,3,4-oxadiazol-2(3H)-one], the EC50 in test [1] was 0.935 nM; in test [2], 0.114 nM.
Taken in the same sequence, the figures for `N#Cc1ccc(Cn2ccc3cc(-c4c(-c5n[nH]c(=O)o5)c(CCc5ccc(F)cc5)nc5c4c(=O)n4n5CCC4)ccc32)cc1F` [Compound 158, 2-fluoro-4-((5-(2-(4-fluorophenethyl)-5-oxo-3-(5-oxo-4,5-dihydro-1,3,4-oxadiazol-2-yl)-8,9-dihydro-5H,7H-pyrazolo[1′,2′:1,2]pyrazolo[3,4-b]pyridin-4-yl)-1H-indol-1-yl)methyl)benzonitrile] were 12.8 nM and 1.19 nM.
Taken in the same sequence, the figures for `COc1cccc2c1CC[C@H]2Nc1nccc2cc(-c3c(-c4n[nH]c(=O)o4)c(CCc4ccc(F)cc4)nc4c3S(=O)(=O)CC4(C)C(C)C)sc12` (stereo partly drawn) [Compound 212, 5-(5-(4-fluorophenethyl)-3-isopropyl-7-(7-(((R)-4-methoxy-2,3-dihydro-1H-inden-1-yl)amino)thieno[2,3-c]pyridin-2-yl)-3-methyl-1,1-dioxido-2,3-dihydrothieno[3,2-b]pyridin-6-yl)-1,3,4-oxadiazol-2(3H)-one] were 11700 nM and 526 nM.
Taken in the same sequence, the figures for `O=C1c2c(nc(CCc3ccc(F)cc3)c(-c3n[nH]c(=O)o3)c2-c2cc3ccnc(N[C@@H]4CCc5c(F)cccc54)c3s2)C23CC(CN12)C3` [Compound 272, (R)-5-(4-(7-((4-fluoro-2,3-dihydro-1H-inden-1-yl)amino)thieno[2,3-c]pyridin-2-yl)-2-(4-fluorophenethyl)-5-oxo-8,9-dihydro-5H,7H-8,9a-methanopyrido[2,3-a]pyrrolizin-3-yl)-1,3,4-oxadiazol-2(3H)-one] were 1.45 nM and 0.0666 nM.
Regarding `O=C1c2c(nc(CCc3ccc(F)cc3)c(-c3n[nH]c(=O)o3)c2-c2cc3ccnc(N[C@@H]4CCc5cc(F)ccc54)c3s2)[C@@H]2CCCN12` [Compound 184, 5-((S)-4-(7-(((R)-5-fluoro-2,3-dihydro-1H-inden-1-yl)amino)thieno[2,3-c]pyridin-2-yl)-2-(4-fluorophenethyl)-5-oxo-7,8,9,9a-tetrahydro-5H-pyrido[2,3-a]pyrrolizin-3-yl)-1,3,4-oxadiazol-2(3H)-one], the EC50 in test [1] is 3.59 nM; in test [2], 0.247 nM.
Taken in the same sequence, the figures for `O=C1c2c(nc(CCc3ccc(F)cc3)c(-c3noc(=O)[nH]3)c2-c2ccc3c(ccn3Cc3ccc(F)c(F)c3)c2)[C@@H]2CCCN12` [Compound 153] were 16.6 nM and 2.58 nM.
Taken in the same sequence, the figures for `COc1c(F)ccc2c1CC[C@H]2Nc1ccnc2cc(-c3c4c(nc(CCc5ccc(F)cc5)c3-c3n[nH]c(=O)o3)C35CC(CN3C4=O)C5)sc12` [Compound 271, (R)-5-(4-(7-((5-fluoro-4-methoxy-2,3-dihydro-1H-inden-1-yl)amino)thieno[3,2-b]pyridin-2-yl)-2-(4-fluorophenethyl)-5-oxo-8,9-dihydro-5H,7H-8,9a-methanopyrido[2,3-a]pyrrolizin-3-yl)-1,3,4-oxadiazol-2(3H)-one] were 3.13 nM and 0.178 nM.
In the case of `CC(c1ccc(F)c(F)c1)n1ccc2cc(-c3c4c(nc(CCC5CCOCC5)c3-c3cc(=O)[nH]o3)[C@@H]3CCCN3C4=O)ccc21` (stereo partly drawn) [Compound 202, 5-((9aS)-4-(1-(1-(3,4-difluorophenyl)ethyl)-1H-indol-5-yl)-5-oxo-2-(2-(tetrahydro-2H-pyran-4-yl)ethyl)-7,8,9,9a-tetrahydro-5H-pyrido[2,3-a]pyrrolizin-3-yl)isoxazol-3(2H)-one], the EC50 in test [1] is 1750 nM; in test [2] it was 66.2 nM.
Taken in the same sequence, the figures for `N#Cc1ccc(Cn2c(=O)oc3cc(-c4c(-c5n[nH]c(=O)o5)c(CCc5ccc(F)cc5)nc5c4S(=O)(=O)CC54CC4)ccc32)nc1` [Compound 238, 6-((6-(5′-(4-fluorophenethyl)-1′,1′-dioxido-6′-(5-oxo-4,5-dihydro-1,3,4-oxadiazol-2-yl)-2′H-spiro[cyclopropane-1,3′-thieno[3,2-b]pyridin]-7′-yl)-2-oxobenzo[d]oxazol-3(2H)-yl)methyl)nicotinonitrile] were 75.7 nM and 5.12 nM.
Taken in the same sequence, the figures for `COc1c(Cl)cc2c(c1F)CC[C@H]2Nc1nccc2cc(-c3c4c(nc(CCc5ccc(F)cc5)c3-c3n[nH]c(=O)o3)C35CC(CN3C4=O)C5)sc12` [Compound 289, (R)-5-(4-(7-((6-chloro-4-fluoro-5-methoxy-2,3-dihydro-1H-inden-1-yl)amino)thieno[2,3-c]pyridin-2-yl)-2-(4-fluorophenethyl)-5-oxo-5,7,8,9-tetrahydro-8,9a-methanopyrido[2,3-a]pyrrolizin-3-yl)-1,3,4-oxadiazol-2(3H)-one] were 0.54 nM and 0.0645 nM.
As to `COc1c(F)c(F)cc2c1CC[C@H]2Nc1nc(C)cc2cc(-c3c4c(nc(CCc5ccc(F)cc5)c3-c3n[nH]c(=O)o3)C35CC(CN3C4=O)C5)sc12` [Compound 195, (R)-5-(4-(7-((5,6-difluoro-4-methoxy-2,3-dihydro-1H-inden-1-yl)amino)-5-methylthieno[2,3-c]pyridin-2-yl)-2-(4-fluorophenethyl)-5-oxo-8,9-dihydro-5H,7H-8,9a-methanopyrido[2,3-a]pyrrolizin-3-yl)-1,3,4-oxadiazol-2(3H)-one], the values for the EC50 in test [1] and in test [2] were 0.0995 nM and 0.00616 nM, respectively.
Taken in the same sequence, the figures for `Cn1cc(Cc2nccc3cc(-c4c5c(nc(CCc6ccc(F)cc6)c4-c4n[nH]c(=O)o4)[C@@H]4CCCN4C5=O)sc23)c2ccccc21` [Compound 249, (S)-5-(2-(4-fluorophenethyl)-4-(7-((1-methyl-1H-indol-3-yl)methyl)thieno[2,3-c]pyridin-2-yl)-5-oxo-7,8,9,9a-tetrahydro-5H-pyrido[2,3-a]pyrrolizin-3-yl)-1,3,4-oxadiazol-2(3H)-one] were 62800 nM and 857 nM.

For the origin of these results see US12486269B2 (Aconcagua Bio, Inc., priority 2024, dated 2025).
